The values that follow come from PubChem BioAssay AID330 (DTP/NCI, 2004).

Structures are written as SMILES. Several values for one entry are separate records, joined by “and”; a condition that tells them apart may be missing. Equal values may be shown once. Inconclusive results and toxic doses are left out.

This assay relates to P388 leukemia ip, CD2F1 mice, survival T/C. In words: NCI In Vivo Anticancer Drug Screen. Data for tumor model P388 Leukemia (intraperitoneal) in CD2F1 (CDF1) mice. Particulars: endpoint: median survival time, higher = longer survival. Put shortly: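 Mice carrying the transplanted tumor received test compound or vehicle. Survival was recorded in each group, and the value is the treated-group measurement divided by that of the vehicle-treated control group.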

Setting [1] is: dose: 25.0 mg/kg/injection, schedule: Q01DX009 (ip), vehicle: saline.
[2] abbreviates: dose: 50.0 mg/kg/injection, schedule: Q01DX009 (ip), vehicle: saline.
Where [3] appears, read: dose: 100.0 mg/kg/injection, schedule: Q01DX009 (ip), vehicle: saline.
Setting [4] is: dose: 12.5 mg/kg/injection, schedule: Q01DX009 (ip), vehicle: saline with Tween-80.
Where [5] appears, read: dose: 50.0 mg/kg/injection, schedule: Q01DX005 (ip), vehicle: saline with Tween-80.
[6] abbreviates: dose: 100.0 mg/kg/injection, schedule: Q01DX005 (ip), vehicle: saline with Tween-80.
Where [7] appears, read: dose: 200.0 mg/kg/injection, schedule: Q01DX005 (ip), vehicle: saline with Tween-80.
The mark [8] stands for this setting: dose: 200.0 mg/kg/injection, schedule: Q01DX009 (ip), vehicle: saline.

In the case of `NC(Cc1ccccc1)C(=O)OCN1C(=O)C2C3C=CC(C2C1=O)C1C2C(=O)N(COC(=O)C(N)Cc4ccccc4)C(=O)C2C31` (configuration not stated), the T/C is, setting by setting: (dose: 12.5 mg/kg/injection, schedule: Q01DX009 (ip), vehicle: water) 103 % of control; under setting [1], 100 % of control and 102 % of control; (dose: 25.0 mg/kg/injection, schedule: Q01DX009 (ip), vehicle: water) 106 % of control and 113 % of control and 103 % of control; under setting [2], 110 % of control; (dose: 50.0 mg/kg/injection, schedule: Q01DX009 (ip), vehicle: water) 109 % of control and 124 % of control; under setting [3], 184 % of control. Moreover, the T/C (dose: 100.0 mg/kg/injection, schedule: Q01DX009 (ip), vehicle: water) is 189 % of control and 197 % of control; the T/C (dose: 150.0 mg/kg/injection, schedule: Q01DX009 (ip), vehicle: saline) was 192 % of control.

As to `CN(C)CCCN=c1c2ccccc2n(O)c2cccc([N+](=O)[O-])c12`, the T/C is 123 % of control (dose: 1.56 mg/kg/injection, schedule: Q01DX009 (ip), vehicle: saline with Tween-80); 117 % of control (dose: 3.12 mg/kg/injection, schedule: Q01DX009 (ip), vehicle: saline); 104 % of control under setting [4].

On to `Cc1ncc(C(N)=O)c2c1OC(C)(C)OC2`, for which the T/C is 100 % of control under setting [5], 100 % of control under setting [6] and 99 % of control under setting [7].

As for `C=CC1(O)CCCCC1`, the T/C runs as follows: under setting [2], 97 % of control; under setting [3], 100 % of control; under setting [8], 107 % of control.

`N#CN=[N+]([O-])c1ccc(Cl)cc1`: the T/C runs as follows: (dose: 3.12 mg/kg/injection, schedule: Q01DX009 (ip), vehicle: Klucel (hydroxypropylcellulose) (HPC)) 107 % of control; (dose: 6.25 mg/kg/injection, schedule: Q01DX009 (ip), vehicle: Klucel (hydroxypropylcellulose) (HPC)) 114 % of control; (dose: 6.25 mg/kg/injection, schedule: Q04DX003 (ip), vehicle: Klucel (hydroxypropylcellulose) (HPC)) 97 % of control; (dose: 12.5 mg/kg/injection, schedule: Q01DX009 (ip), vehicle: Klucel (hydroxypropylcellulose) (HPC)) 98 % of control; (dose: 12.5 mg/kg/injection, schedule: Q04DX003 (ip), vehicle: Klucel (hydroxypropylcellulose) (HPC)) 95 % of control; (dose: 25.0 mg/kg/injection, schedule: Q04DX003 (ip), vehicle: Klucel (hydroxypropylcellulose) (HPC)) 98 % of control.

With `c1cc2n[pH]nc2cn1` (configuration not stated), the T/C was 120 % of control (dose: 15.0 mg/kg/injection, schedule: Q01DX005 (ip), vehicle: saline) and 107 % of control (dose: 30.0 mg/kg/injection, schedule: Q01DX005 (ip), vehicle: saline).

In the case of `Cl`, the T/C runs as follows: (dose: 6.25 mg/kg/injection, schedule: Q01DX009 (ip), vehicle: saline with Tween-80) 95 % of control; (dose: 0.01 % in 0.5 ml injection vol, schedule: Q01DX009 (ip), vehicle: water) 100 % of control; under setting [4], 100 % of control; (dose: 0.02 % in 0.5 ml injection vol, schedule: Q01DX009 (ip), vehicle: water) 101 % of control and 92 % of control; (dose: 25.0 mg/kg/injection, schedule: Q01DX009 (ip), vehicle: saline with Tween-80) 100 % of control; under setting [1], 106 % of control. The T/C was 102 % of control and 108 % of control (dose: 0.04 % in 0.5 ml injection vol, schedule: Q01DX009 (ip), vehicle: water); 104 % of control under setting [2]; 99 % of control (dose: 50.0 mg/kg/injection, schedule: Q#A X018 (ip), vehicle: saline); 100 % of control and 88 % of control (dose: 0.08 % in 0.5 ml injection vol, schedule: Q01DX009 (ip), vehicle: water); 101 % of control under setting [3]; 105 % of control (dose: 100.0 mg/kg/injection, schedule: Q#A X018 (ip), vehicle: saline). Besides, the T/C runs as follows: (dose: 0.16 % in 0.5 ml injection vol, schedule: Q01DX009 (ip), vehicle: water) 88 % of control; under setting [8], 110 % of control and 97 % of control; (dose: 200.0 mg/kg/injection, schedule: Q#A X018 (ip), vehicle: saline) 97 % of control; (dose: 0.31 % in 0.5 ml injection vol, schedule: Q01DX009 (ip), vehicle: water) 88 % of control; (dose: 400.0 mg/kg/injection, schedule: Q01DX009 (ip), vehicle: saline) 95 % of control; (dose: 400.0 mg/kg/injection, schedule: Q#A X018 (ip), vehicle: saline) 87 % of control. For the same compound, the T/C (dose: 800.0 mg/kg/injection, schedule: Q01DX009 (ip), vehicle: saline) was 103 % of control.

For the compound `CCOC(=O)COc1ccc(CC)cc1Cc1ccc(OC)cc1`, the T/C under setting [5] is 97 % of control, the T/C under setting [6] was 111 % of control and the T/C under setting [7] is 111 % of control.

Turning to `O=C(Nc1ccc(Cl)cc1)Nc1nnc(Cc2ccc(Cl)cc2)o1`, the T/C under setting [5] is 99 % of control and the T/C under setting [6] is 87 % of control.

On to `OC1CC2c3ccccc3C1c1cccc[n+]12` (configuration not stated), for which the T/C by setting is: (dose: 12.5 mg/kg/injection, schedule: Q01DX005 (ip), vehicle: saline) 106 % of control; (dose: 25.0 mg/kg/injection, schedule: Q01DX005 (ip), vehicle: saline) 108 % of control; (dose: 50.0 mg/kg/injection, schedule: Q01DX005 (ip), vehicle: saline) 103 % of control and 106 % of control.

As to `O=S1(=O)c2ccccc2C(N2CCCCC2)C1CCCCC1C(N2CCCCC2)c2ccccc2S1(=O)=O` (configuration not stated), the T/C (dose: 100.0 mg/kg/injection, schedule: Q04DX002 (ip), vehicle: saline with Tween-80) is 100 % of control; the T/C (dose: 200.0 mg/kg/injection, schedule: Q04DX002 (ip), vehicle: saline with Tween-80) is 98 % of control; the T/C (dose: 400.0 mg/kg/injection, schedule: Q04DX002 (ip), vehicle: saline with Tween-80) was 99 % of control.

For the compound `CC(=O)C1(C(C)=O)C2=C(C(=O)C(Cl)=C(Cl)C2=O)N2C=CC=CC21` (configuration not stated), the T/C is, setting by setting: (dose: 100.0 mg/kg/injection, schedule: Q04DX002 (ip), vehicle: saline) 102 % of control; (dose: 200.0 mg/kg/injection, schedule: Q04DX002 (ip), vehicle: saline) 88 % of control.
